This note sets out measurements from publication PMC4619319, “A potent anti-inflammatory peptide from the salivary glands of horsefly” (Parasites & Vectors, 2015).

One data set relates to RAW264.7 cells. The following applies: CCK-8, 24 h, concentration as high as 200 μg/mL. On the procedure: (§1) Mouse peritoneal macrophages were prepared according to previous method. Brewer thioglycollate medium (3 %, w/v, Sigma-Aldrich, USA) was intraperitoneally injected to C57BL/6 mouse. After 3 days, the mouse was euthanized and intraperitoneally injected with 20 mL RPMI-1640 medium to collect peritoneal macrophages. RAW264.7 cells were cultured in RPMI 1640 medium (10 % FBS, 100 U/mL penicillin and 100 μg/mL streptomycin, Gibco, USA) at 37 °C humidified with 5 % CO2. Mouse macrophages, peritoneal macrophages and RAW264.7 cells, were seeded in a 96-well (2 × 10^4 cells/well) plate, and cultured in RPMI 1640 medium (100 μL) supplemented with 2 % FBS, 100 U/mL penicillin and 100 μg/mL streptomycin (Gibco, USA) at 37 °C in a humidified 5 % CO2 incubator. The cytotoxicity of cecropin-TY1 against mouse macrophages was determined by Cell Counting Kit-8 assay (CCK-8) following the kit instruction. In brief, serial 2-fold peptide dilutions were added to each well, and control wells received the same volume of phosphate-buffered solution (PBS, 8 g/L NaCl, 0.2 g/L KCl, 0.2 g/L KH2PO4, 2.89 g/L Na2HPO4 · 12H2O, pH 7.4). After 24-h incubation, CCK-8 solution (10 μL/well) was added and incubated for an additional 4 h. The absorbance at 450 nm was monitored on a microplate reader (Epoch Etock, BioTek, USA).

Data set [1] deals with mouse peritoneal macrophages. The following applies: CCK-8, 24 h, concentration as high as 200 μg/mL. The method, then: as §1
In a further data set the test system is TNF-α transcription. Description: LPS-stimulated TNF-α transcription in peritoneal macrophages (qPCR). The data set is classed as cell-based, mouse. As to conditions: 20 μg/mL peptide, 100 ng/mL LPS, 6 h. The method, then:
(§2) qPCR was performed using SYBR green master mix (Takara, Japan) on a Realplex Mastercycler real-time PCR system (Eppendorf, Germany) according to the manufacturer’s instruction. The gene transcription levels were normalized to GAPDH or β-actinas as illustrated in figure legends and calculated by ΔΔCt method. The accuracy of qPCR results were checked by melting curve analysis. qPCR primers were listed in Additional file 1: Table S1.
(§3) Cells were incubated with peptides (0, 5, 10, and 20 μg/mL) with or without 100 ng/mL LPS (from E. coli 0111:B4, Sigma-Aldrich, USA) for 6 h. After treatment, culture medium was collected for TNF-α, IL-1β and IL-6 quantification using enzyme-linked immunosorbent assay (ELISA) kits (Dakewei, China). Cells were washed with ice-cold PBS and lysed by Trizol reagent (Life Tech, USA). Total RNA was extracted for cDNA synthesis to quantify TNF-α, IL-1β and IL-6 transcription levels by qPCR as described in qPCR section.
(In general: Real-time PCR tracks product formation cycle by cycle.)

The test system of a further data set is IL-6 transcription. The data set can be described thus: LPS-stimulated IL-6 transcription in peritoneal macrophages (qPCR). The format is cell-based, mouse. The following applies: 20 μg/mL peptide, 100 ng/mL LPS, 6 h. The method, then: as §2, §3
For another data set, the system named is TNF-α production. The data set can be described thus: LPS-stimulated TNF-α production in peritoneal macrophages (ELISA). The data set is classed as cell-based, mouse. The following applies: 20 μg/mL peptide, 100 ng/mL LPS, 6 h. On the procedure:
as §3

The test system of another data set is IL-1β production. The data set can be described thus: LPS-stimulated IL-1β production in peritoneal macrophages (ELISA). The format is cell-based, mouse. As to conditions: 20 μg/mL peptide, 100 ng/mL LPS, 6 h. On the procedure:
as §3
(An ELISA detects its analyte on a solid surface through an enzyme-linked reagent.)

The test system of a further data set is IL-6 production. Description: LPS-stimulated IL-6 production in peritoneal macrophages (ELISA). The data set is classed as cell-based, mouse. The following applies: 20 μg/mL peptide, 100 ng/mL LPS, 6 h. The method, then:
as §3

For a further data set, the system named is P-JNK2. The data set can be described thus: Western blot, LPS-induced P-JNK2 in peritoneal macrophages. The data set is classed as cell-based, mouse. As to conditions: 20 μg/mL peptide, 100 ng/mL LPS, 30 min, band density ratio to β-actin. The method, then:
(§4) Cells were treated with different concentrations of cecropin-TY1 (0, 5, 10, and 20 μg/mL) in the presence or absence of 100 ng/mL LPS (from E. coli 0111:B4, Sigma-Aldrich, USA). After 30-min incubation, cells were washed twice with ice-cold PBS and lysed with RIPA lysis buffer (Beyotime, China) on ice for 30 min according to our previous method. Protein concentration was quantified by BCA Protein Assay Kit (Thermo, Germany). About 40 μg protein was separated on a 10 % SDS-PAGE gel and transferred to a polyvinylidene difluoride membrane. The membrane was blocked by incubating with 5 % BSA (BD, USA) dissolved in Tris-buffered solution Tween-20 (TBST, 2.42 g/L Trisbase, 8 g/L NaCl, 0.1 % Tween 20, pH 7.6) for 2 h at room temperature. The membrane was then incubated with primary antibodies against ERK, phospho-ERK, p38, phospho-p38, JNK, phospho-JNK, phospho-IκBα, NF-κB p65 and phospho-NF-κB p65 (1:2000, Cell Signaling Technology, USA) and GAPDH/β-actin (1:5000, Santa Cruz Biotechnology, USA) overnight at 4 °C, respectively. After incubation, the immunoblot was washed three times with TBST for 5 min each time, and incubated with secondary antibody (1:5000, Cell Signaling Technology, USA) at room temperature for 1 h. Signals were measured by enhanced chemiluminescence kit in a dark room after washing three times with TBST for 10 min each time (TIANGEN, China).
On the technique in general: A western blot detects proteins with antibodies after separation by electrophoresis.

The test system of a further data set is P-IκBα. The data set can be described thus: Western blot, LPS-induced P-IκBα in peritoneal macrophages. The data set is classed as cell-based, mouse. The following applies: 20 μg/mL peptide, 100 ng/mL LPS, 30 min, band density ratio to β-actin. The method, then:
as §4

Data set [2] can be described thus: Dissociation of FITC-conjugated LPS aggregates (fluorescence). The format is binding. As to conditions: FITC-LPS 1 μg/mL, 10 mM phosphate buffer pH 6.0, ex 480 nm / em 515 nm. On the procedure: (§5) Fluorescein isothiocyanate (FITC)-conjugated LPS (1 μg/mL, Sigma-Aldrich, USA) was excited at 480 nm and monitored the changes in the emission of FITC-LPS at 515 nm in the incubation of different concentrations of peptides (0, 12.5, 25, 50, 100 μg/mL). Peptides were dissolved in 10 mM phosphate buffer at pH 6.0. The interactions between peptides and LPS were further assessed by a quantitative Chromogenic End-point Tachypleus amebocyte lysate (TAL) assay kit (Xiamen Houshiji, China) following the kit instruction. Briefly, different concentrations of peptides (0, 12.5, 25, 50, 100 μg/mL) were incubated with LPS (1 μg/mL, Sigma-Aldrich, USA) at 37 °C for 30 min. After incubation, 100 μL TAL solution was added to 100 μL LPS-peptide mixtures in a pyrogen-free tube and incubated at 37 °C for 10 min. Then, LPS-peptide mixtures were added with pre-warmed substrate solution for additional 6-min incubation at 37 °C. Lastly, the absorbance at 545 nm was measured on a microplate reader (Epoch Etock, BioTek, USA). The percentages of LPS-neutralizing activity were calculated.

A short description of data set [3]: LPS neutralization, chromogenic end-point TAL assay. The data set is classed as biochemical. As to conditions: LPS 1 μg/mL, 37 °C, 30 min. The method, then: as §5

Take “GWLKKIGKKIERVGQNVRNAAISTLPIAQGAAGVAGALN-NH2 [cecropin-TY1, cecropin antimicrobial peptide from salivary glands of horsefly Tabanus yao, 39 residues, C-terminally amidated, synthesized]”: the “cytotoxicity (cell viability)” value (in the data set on RAW264.7 cells; in data set [1]) was “didn’t show any cytotoxicity” in each case. In the data set on TNF-α transcription, the “attenuation of LPS-stimulated TNF-α transcription” value is 60.3%. The “attenuation of LPS-stimulated IL-6 transcription” value in the data set with IL-6 transcription was determined as 94.1%. In the data set with TNF-α production, the “reduction of LPS-induced TNF-α production” value was determined as 72.1%. Besides, the “reduction of LPS-induced IL-1β production” value in the data set on IL-1β production turned out to be 63.4%. Also, the “reduction of LPS-induced IL-6 production” value in the data set on IL-6 production was 76.2%. The “inhibition of LPS-induced P-JNK2 expression” value in the data set with P-JNK2 is 66.1%. Further, in the data set on P-IκBα, the “inhibition of LPS-induced P-IκBα expression” value was 74.8%. Further, the “increase of FITC-LPS fluorescence” value came out at 33.4% in [2] (12.5 μg/mL peptide), 46.7% in data set [2] (25 μg/mL peptide), 63.3% in [2] (50 μg/mL peptide) and 71.6% in data set [2] (100 μg/mL peptide). In addition, the LPS neutralized stood at 28.8% in data set [3] (12.5 μg/mL peptide), 41.3% in [3] (25 μg/mL peptide), 47.9% in data set [3] (50 μg/mL peptide) and 65.1% in [3] (100 μg/mL peptide).
